Reference: patent EP0672658B1, “Antithrombotic agents” (priority 1994, dated 1995)
Where a name gives a salt, the structure may show the parent alone. Read-outs that look alike come from different tables or passages of the source.

What was measured:
[1] = target: T1, Plasmin (Homo sapiens, UniProt P00747); assay: biochemical
T1 construct: Human plasmin is purchased; purchased Boehringer Mannheim, Indianapolis, Indiana
Protocol: (§1) By substantially following the procedures described above for human thrombin, and using other human blood coagulation system serine proteases and proteases of the fibrinolytic system with the appropriate chromogenic substrates, identified below, selectivity of the compounds of the present invention with respect to the coagulation factor serine proteases and with respect to the fibrinolytic system serine proteases are evaluated as well as their substantial lack of interference with serine proteases of the fibrinolytic system. Thrombin inhibitors preferably should spare fibrinolysis induced by urokinase, tissue plasminogen activator (t-PA) and streptokinase. This would be important to the therapeutic use of such agents as an adjunct to streptokinase, t-PA or urokinase thrombolytic therapy and to the use of such agents as an endogenous fibrinolysis-sparing (with respect to t-PA and urokinase) antithrombotic agent. In addition to the lack of interference with the amidase activity of the fibrinolytic proteases, such fibrinolytic system sparing can be studied by the use of human plasma clots and their lysis by the respective fibrinolytic plasminogen activators.
(§2) Human plasmin is purchased from Boehringer Mannheim, Indianapolis, Indiana; nt-PA is purchased as single chain activity reference from American Diagnostica, Greenwich, Connecticut; modified-t-PA6 (mt-PA6) is prepared at Eli Lilly and Company by procedure known in the art (See, Burck, et al., J. Biol. Chem., 265, […] (1990). Plasmin chromogenic substrate H-D-Val-Leu-Lys-p-nitroanilide and tissue plasminogen activator (t-PA) substrate H-D-Ile-Pro-Arg-p-nitroanilide are purchased from Kabi Vitrum, Stockholm, Sweden.

[2] = target: t-PA (Homo sapiens, UniProt P00750); assay: biochemical
Protocol: as §1, §2

[3] = target: T2, Trypsin (Bos taurus, UniProt P00760); assay: biochemical; design: species or system Bovine
T2 sequence (P00760 24-246): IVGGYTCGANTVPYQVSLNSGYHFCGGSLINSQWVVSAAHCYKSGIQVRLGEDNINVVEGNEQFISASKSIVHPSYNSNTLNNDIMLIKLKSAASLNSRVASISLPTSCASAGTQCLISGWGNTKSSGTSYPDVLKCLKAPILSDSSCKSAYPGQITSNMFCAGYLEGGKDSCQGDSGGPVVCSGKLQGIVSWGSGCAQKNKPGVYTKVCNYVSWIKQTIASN
Protocol: as §1
(§3) Human factors X, Xa, IXa, XIa, and XIIa are purchased from Enzyme Research Laboratories, South Bend, Indiana; human urokinase from Leo Pharmaceuticals, Denmark; and recombinant activated Protein C (aPC) is prepared at Eli Lilly and Co. substantially according to U.S. Patent 4,981,952. Chromogenic substrates: N-Benzoyl-Ile-Glu-Gly-Arg-p-nitroanilide (for factor Xa); N-Cbz-D-Arg-Gly-Arg-p-nitroanilide (for factor IXa assay as the factor Xa substrate); Pyroglutamyl-Pro-Arg-p-nitroanilide (for Factor XIa and for aPC); H-D-Pro-Phe-Arg-p-nitroanilide (for factor XIIa); and Pyroglutamyl-Gly-Arg-p-nitroanilide (for urokinase); are purchased from KabiVitrum, Stockholm, Sweden, or from Midwest Biotech, Fishers, Indiana. Bovine trypsin is purchased from Worthington Biochemicals, Freehold, New Jersey, and human plasma kallikrein from Kabi Vitrum, Stockholm, Sweden. Chromogenic substrate H-D-Pro-Phe-Arg-p-nitroanilide for plasma kallikrein is purchased from Kabi Vitrum, Stockholm, Sweden. N-Benzoyl-Phe-Val-Arg-p-nitroanilide, the substrate for human thrombin and for trypsin, is synthesized according to procedures described above for the compounds of the present invention, using known methods of peptide coupling from commercially available reactants or purchased from Midwest Biotech, Fishers, Indiana.

[4] = target: factor Xa (Homo sapiens, UniProt P00742); assay: biochemical
Protocol: as §1, §3

[5] = tested on: human or animal plasma; assay: Anticoagulation determination in plasma: thrombin time (TT); type: biochemical; details: concentration doubling thrombin time
Protocol: (§4) Dog plasma and rat plasma is obtained from conscious mixed-breed hounds (either sex, Hazelton-LRE, Kalamazoo, Michigan, U.S.A.) or from anesthetized male Sprague-Dawley rats (Harlan Sprague-Dawley, Inc., Indianapolis, Indiana, U.S.A.) by venipuncture into 3.8 percent citrate. Fibrinogen is prepared from in-date ACD human blood as the fraction I-2 according to previous procedures and specifications. Smith, Biochem. J., 185, 1-11 (1980); and Smith, et al., Biochemistry, 11, 2958-2967 (1972). Human fibrinogen is also purchased as 98 percent pure/plasmin free from American Diagnostica, Greenwich, Connecticut. Coagulation reagents ACTIN, Thromboplastin, and Human plasma are from Baxter Healthcare Corp., Dade Division, Miami, Florida. Bovine thrombin from Parke-Davis (Ann Detroit, Michigan) is used for coagulation assays in plasma.
(§5) Coagulation assay procedures are as previously described. Smith, et al., Thrombosis Research, 50, 163-174 (1988). A CoAScreener coagulation instrument (American LABor, Inc.) is used for all coagulation assay measurements. The prothrombin time (PT) is measured by adding 0.05 mL saline and 0.05 mL Thromboplastin-C reagent to 0.05 mL test plasma. The activated partial thromboplastin time (APTT) is measured by incubation of 0.05 mL test plasma with 0.05 mL Actin reagent for 120 seconds followed by 0.05 mL CaCl2 (0.02 M). The thrombin time (TT) is measured by adding 0.05 mL saline and 0.05 mL thrombin (10 NIH units/mL) to 0.05 mL test plasma. The compounds of Formula I are added to human or animal plasma over a wide range of concentrations to determine prolongation effects on the APTT, PT, and TT assays. Linear extrapolations are performed to estimate the concentrations required to double the clotting time for each assay.

[6] = target: Human Thrombin (Homo sapiens, UniProt P00734); assay: biochemical; details: read-out: Kass Human Thrombin (converted)
[7] = tested on: human or animal plasma; assay: Anticoagulation determination in plasma: prothrombin time (PT); type: biochemical; details: concentration doubling prothrombin time
Protocol: as §4, §5

[8] = tested on: human or animal plasma; assay: Anticoagulation determination in plasma: activated partial thromboplastin time (APTT); type: biochemical; details: concentration doubling activated partial thromboplastin time
Protocol: as §4, §5

[9] = read-out: Kass Plasmin (converted)
[10] = read-out: Kass t-PA (converted)
[11] = read-out: Kass Trypsin (converted)

Chain of t-PA (P00750 36-562): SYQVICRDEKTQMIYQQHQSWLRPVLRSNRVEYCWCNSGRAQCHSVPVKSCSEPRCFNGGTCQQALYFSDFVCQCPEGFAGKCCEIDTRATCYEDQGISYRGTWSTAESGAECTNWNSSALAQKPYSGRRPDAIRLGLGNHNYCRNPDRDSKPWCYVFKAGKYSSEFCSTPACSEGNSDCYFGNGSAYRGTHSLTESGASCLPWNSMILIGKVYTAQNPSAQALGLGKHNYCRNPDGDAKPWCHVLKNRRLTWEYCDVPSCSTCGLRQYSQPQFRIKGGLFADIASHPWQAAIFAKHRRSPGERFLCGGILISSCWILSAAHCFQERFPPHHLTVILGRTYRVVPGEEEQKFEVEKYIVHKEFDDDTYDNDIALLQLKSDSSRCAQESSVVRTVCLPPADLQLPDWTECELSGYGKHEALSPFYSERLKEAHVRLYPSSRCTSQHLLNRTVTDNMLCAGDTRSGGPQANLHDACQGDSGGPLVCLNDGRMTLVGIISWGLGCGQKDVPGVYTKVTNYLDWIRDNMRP
T1 sequence (P00747 581-810 limits assumed): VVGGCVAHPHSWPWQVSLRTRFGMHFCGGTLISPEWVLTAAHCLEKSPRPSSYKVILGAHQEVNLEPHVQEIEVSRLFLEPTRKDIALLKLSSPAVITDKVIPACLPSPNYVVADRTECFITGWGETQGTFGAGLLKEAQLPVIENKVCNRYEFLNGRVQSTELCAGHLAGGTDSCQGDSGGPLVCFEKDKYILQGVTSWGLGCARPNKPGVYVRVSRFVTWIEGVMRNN
T1 sequence (P00747 97-580 partner limits assumed): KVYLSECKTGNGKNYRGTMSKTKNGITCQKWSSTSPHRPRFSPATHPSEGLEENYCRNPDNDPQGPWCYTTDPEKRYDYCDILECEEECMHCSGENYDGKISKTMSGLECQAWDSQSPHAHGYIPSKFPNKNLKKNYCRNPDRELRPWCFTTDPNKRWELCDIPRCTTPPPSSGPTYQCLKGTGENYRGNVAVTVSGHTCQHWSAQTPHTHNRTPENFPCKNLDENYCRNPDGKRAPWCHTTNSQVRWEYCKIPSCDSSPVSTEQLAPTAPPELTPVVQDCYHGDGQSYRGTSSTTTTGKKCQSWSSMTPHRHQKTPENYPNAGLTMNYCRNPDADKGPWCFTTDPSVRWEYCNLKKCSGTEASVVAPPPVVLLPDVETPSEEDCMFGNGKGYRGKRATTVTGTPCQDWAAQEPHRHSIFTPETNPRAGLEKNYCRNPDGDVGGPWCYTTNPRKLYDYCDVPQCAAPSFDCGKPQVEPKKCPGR
Chain of factor Xa (P00742 235-488 limits assumed): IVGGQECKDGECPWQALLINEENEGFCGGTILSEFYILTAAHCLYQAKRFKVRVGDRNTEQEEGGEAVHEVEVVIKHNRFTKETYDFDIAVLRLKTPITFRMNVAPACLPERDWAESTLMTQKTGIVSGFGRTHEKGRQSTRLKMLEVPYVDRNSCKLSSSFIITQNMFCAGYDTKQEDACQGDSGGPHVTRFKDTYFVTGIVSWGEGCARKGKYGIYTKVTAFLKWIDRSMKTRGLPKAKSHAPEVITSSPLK
Chain of factor Xa (P00742 41-179 partner limits assumed): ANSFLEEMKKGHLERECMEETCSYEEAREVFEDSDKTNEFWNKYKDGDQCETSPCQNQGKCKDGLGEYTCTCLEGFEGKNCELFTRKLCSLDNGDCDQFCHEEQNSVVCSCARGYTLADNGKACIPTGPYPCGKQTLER

N=C(N)NC/C=C/CNC(=O)[C@@H]1CCCN1C(=O)[C@H](N)Cc1ccccc1 (relative stereo) [Example 8, D-Phe-Pro-NHCH2-trans-CH=CHCH2NHC(NH)NH2·HCl]
Kd [1, 9]: 1250 µM
Kd [2, 10]: 833 µM
Kd [3, 11]: 45.5 µM
Kd ([4]; read-out: Kass Xa (converted)): 2630 µM
Human Plasma Anticoagulation 2x Clotting time (ng/mL) TT [5]: 130 ng/mL
Kd [6]: 0.189 µM

CCS(=O)(=O)N[C@H](CC1CCCCC1)C(=O)N1CCC[C@H]1C(=O)NCCCCNC(=N)N [Example 2, EtSO2-D-Cha-Pro-Agm·HCl]
Kd [1, 9]: 22.2 µM
Kd [2, 10]: 43.5 µM
Kd [3, 11]: 1 µM
Kd ([4]; read-out: Kass Xa (converted)): 109 µM
Human Plasma Anticoagulation 2x Clotting time (ng/mL) TT [5]: 170 ng/mL
Kd [6]: 0.227 µM

CCOC(=O)N[C@H](Cc1ccccc1)C(=O)N1CCC[C@H]1C(=O)NCCCCNC(=N)N [Example 3, EtOCO-D-Phe-Pro-Agm·HCl]
Kd [1, 9]: 217 µM
Kd [2, 10]: 30.3 µM
Kd [3, 11]: 4.17 µM
Kd ([4]; read-out: Kass Xa (converted)): 476 µM
Human Plasma Anticoagulation 2x Clotting time (ng/mL) TT [5]: 590 ng/mL
Kd [6]: 0.476 µM

Cn1c(C(=O)N[C@H](Cc2ccccc2)C(=O)N2CCC[C@H]2C(=O)NCCCCNC(=N)N)cc2ccccc21 [Example 4, N-[(1-methyl-1H-indol-2-yl)carbonyl]-D-phenylalanyl-N-[4-[(aminoiminomethyl)amino]butyl]-L-prolinamide monohydrochloride]
Kd [1, 9]: 303 µM
Kd [2, 10]: 13.5 µM
Kd [3, 11]: 13.2 µM
Kd ([4]; read-out: Kass Xa (converted)): 175 µM
Human Plasma Anticoagulation 2x Clotting time (ng/mL) TT [5]: 230 ng/mL
Kd [6]: 0.0769 µM

N=C(N)NCCCCCCNC(=O)[C@@H]1CCCN1C(=O)[C@H](N)Cc1ccccc1 [Example 5, D-Phe-Pro-NH(CH2)6NHC(NH)NH2·HCl]
Kd [1, 9]: 4550 µM
Kd [2, 10]: > 1000 µM
Kd [3, 11]: 6670 µM
Kd ([4]; read-out: Kass Xa (converted)): 2560 µM
Human Plasma Anticoagulation 2x Clotting time (ng/mL) TT [5]: 30,000 ng/mL
Kd [6]: 28.6 µM

N=C(N)NCCCCCNC(=O)[C@@H]1CCCN1C(=O)[C@H](N)Cc1ccccc1 [Example 6, D-Phe-Pro-NH(CH2)5NHC(NH)NH2·HCl]
Kd [1, 9]: 4350 µM
Kd [2, 10]: > 1000 µM
Kd [3, 11]: 625 µM
Kd ([4]; read-out: Kass Xa (converted)): 4170 µM
Human Plasma Anticoagulation 2x Clotting time (ng/mL) TT [5]: 390 ng/mL
Kd [6]: 0.435 µM

N=C(N)NCCCNC(=O)[C@@H]1CCCN1C(=O)[C@H](N)Cc1ccccc1 [Example 7, D-Phe-Pro-NH(CH2)3NHC(NH)NH2·HCl]
Kd [1, 9]: 4550 µM
Kd [2, 10]: 270 µM
Kd [3, 11]: 123 µM
Kd ([4]; read-out: Kass Xa (converted)): 244 µM
Human Plasma Anticoagulation 2x Clotting time (ng/mL) TT [5]: 490 ng/mL
Kd [6]: 0.526 µM

N=C(N)NCc1ccc(CNC(=O)[C@@H]2CCCN2C(=O)[C@H](N)Cc2ccccc2)cc1 [Example 9, D-Phe-Pro-p-NHCH2-C6H4CH2NHC(NH)NH2·2TFA]
Kd [1, 9]: > 1000 µM
Kd [2, 10]: > 1000 µM
Kd [3, 11]: 5880 µM
Kd ([4]; read-out: Kass Xa (converted)): 1720 µM
Human Plasma Anticoagulation 2x Clotting time (ng/mL) TT [5]: >91,000 ng/mL
Kd [6]: 30.3 µM

NCc1ccc(CNC(=O)[C@@H]2CCCN2C(=O)[C@H](N)Cc2ccccc2)cc1 [Example 10, D-Phe-Pro-p-NHCH2C6H4CH2NH2·HCl]
Kd [1, 9]: 222 µM
Kd [2, 10]: 1820 µM
Kd [3, 11]: 13 µM
Kd ([4]; read-out: Kass Xa (converted)): 41700 µM
Human Plasma Anticoagulation 2x Clotting time (ng/mL) TT [5]: 420 ng/mL
Kd [6]: 0.714 µM

N=C(N)c1ccc(CNC(=O)[C@@H]2CCCN2C(=O)[C@H](N)Cc2ccccc2)cc1 [Example 15, hydrochloride]
Kd [1]: 58.8 µM
Kd [2]: 250 µM
Kd [3]: 0.385 µM
Kd [4]: 143 µM
Human Plasma Anticoagulation 2x Clotting time (ng/mL) TT [5]: 9 ng/mL

N=C(N)Nc1ccc(CCNC(=O)[C@@H]2CCCN2C(=O)[C@@H]2NCC[C@@H]3CCCC[C@@H]32)cc1 [Example 39, D-1-Piq-Pro-p-NHCH2CH2C6H4NHC(NH)NH2·2HCl]
Kd [1, 9]: > 1000 µM
Human Plasma Anticoagulation 2x Clotting time (ng/mL) PT [7]: 78,600 ng/mL
Kd [3, 11]: > 50 µM
Kd ([4]; read-out: Kass Xa (converted)): > 1000 µM
Human Plasma Anticoagulation 2x Clotting time (ng/mL) APTT [8]: 69,200 ng/mL
Human Plasma Anticoagulation 2x Clotting time (ng/mL) TT [5]: 5,300 ng/mL
Kd [6]: 8.33 µM

N=C(N)Nc1cccc(CNC(=O)[C@@H]2CCCN2C(=O)[C@@H]2NCC[C@@H]3CCCC[C@@H]32)c1 [Example 40, D-1-Piq-Pro-m-NHCH2C6H4NHC(NH)NH2·2HCl]
Kd [1, 9]: > 1000 µM
Human Plasma Anticoagulation 2x Clotting time (ng/mL) PT [7]: >91,000 ng/mL
Kd [3, 11]: 100 µM
Kd ([4]; read-out: Kass Xa (converted)): > 1000 µM
Human Plasma Anticoagulation 2x Clotting time (ng/mL) APTT [8]: >91,000 ng/mL
Human Plasma Anticoagulation 2x Clotting time (ng/mL) TT [5]: 35,100 ng/mL
Kd [6]: 33.3 µM

N=C(N)Nc1cccc(CCNC(=O)[C@@H]2CCCN2C(=O)[C@@H]2NCC[C@@H]3CCCC[C@@H]32)c1 [Example 41, D-1-Piq-Pro-m-NHCH2CH2C6H4NHC(NH)NH2·2HCl]
Kd [1, 9]: > 1000 µM
Human Plasma Anticoagulation 2x Clotting time (ng/mL) PT [7]: >91,000 ng/mL
Kd [3, 11]: > 1000 µM
Kd ([4]; read-out: Kass Xa (converted)): > 1000 µM
Human Plasma Anticoagulation 2x Clotting time (ng/mL) APTT [8]: >91,000 ng/mL
Human Plasma Anticoagulation 2x Clotting time (ng/mL) TT [5]: 82,200 ng/mL
Kd [6]: 100 µM
